Reference: ChEMBL document CHEMBL1944555, “Selective and slow-binding inhibition of shikonin derivatives isolated from Lithospermum erythrorhizon on glycosyl hydrolase 33 and 34 sialidases” (Bioorg Med Chem, 2012)
The source made the active and inactive calls. The calls are words filed in the database; no cut-off is given here.

Tests used:
[1] = Inhibition of rhamnosidase at 200 uM
[2] = target: Neuraminidase (Influenza A virus (strain A/Brevig Mission/1/1918 H1N1) (Influenza Avirus (strain A/South Carolina/1/1918 H1N1))) (UniProt Q9IGQ6); experiment: Noncompetitive inhibition of recombinant influenza A virus H1N1 A/Bervig_Mission/1/18 sialidase activity using 4-methylumbelliferyl-alpha-D-N-acetylneuraminic acid sodium salt hydrate as substrate by Lineweaver-Burk and Dixon plot analysis; settings: Influenza A virus (A/Brevig Mission/1/1918(H1N1))
Chain of Neuraminidase (Influenza A virus (strain A/Brevig Mission/1/1918 H1N1) (Influenza Avirus (strain A/South Carolina/1/1918 H1N1))) (Q9IGQ6 whole entry): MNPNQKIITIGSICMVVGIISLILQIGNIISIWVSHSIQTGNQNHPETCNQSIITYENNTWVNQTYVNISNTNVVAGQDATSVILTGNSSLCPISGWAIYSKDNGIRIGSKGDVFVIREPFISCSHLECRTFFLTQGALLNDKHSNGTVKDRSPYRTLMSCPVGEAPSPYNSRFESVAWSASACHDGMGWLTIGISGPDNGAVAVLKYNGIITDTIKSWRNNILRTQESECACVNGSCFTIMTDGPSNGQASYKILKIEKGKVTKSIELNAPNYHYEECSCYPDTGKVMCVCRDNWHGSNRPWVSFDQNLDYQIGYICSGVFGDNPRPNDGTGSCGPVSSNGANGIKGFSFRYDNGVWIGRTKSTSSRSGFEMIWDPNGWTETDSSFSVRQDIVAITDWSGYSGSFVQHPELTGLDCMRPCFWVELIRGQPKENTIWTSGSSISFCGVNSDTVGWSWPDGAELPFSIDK

[3] = target: Neuraminidase (Influenza A virus (strain A/Brevig Mission/1/1918 H1N1) (Influenza Avirus (strain A/South Carolina/1/1918 H1N1)), UniProt Q9IGQ6); experiment: (§1) Inhibition of recombinant influenza A virus H1N1 A/Bervig_Mission/1/18 sialidase activity using 4-methylumbelliferyl-alpha-D-N-acetylneuraminic acid sodium salt hydrate as substrate by fluorimetric analysis; set-up: species or system Influenza A virus (A/Brevig Mission/1/1918(H1N1))
Chain of Neuraminidase (Influenza A virus (strain A/Brevig Mission/1/1918 H1N1) (Influenza Avirus (strain A/South Carolina/1/1918 H1N1)), UniProt Q9IGQ6) (Q9IGQ6 whole entry): as above

[4] = target: Neuraminidase (Influenza A virus (strain A/Brevig Mission/1/1918 H1N1) (Influenza Avirus (strain A/South Carolina/1/1918 H1N1))) (UniProt Q9IGQ6); experiment: as §1; settings: Influenza A virus (A/Brevig Mission/1/1918(H1N1))
[5] = Inhibition of alpha-glucosidase
[6] = Inhibition of beta-glucosidase at 200 uM
[7] = (§2) Inhibition of Clostridium perfringens ATCC 10543 sialidase Nan1 c-terminal catalytic domain using 4-methylumbelliferyl-alpha-D-N-acetylneuraminic acid sodium salt hydrate as substrate by fluorimetric analysis
Clostridium perfringens [8] = experiment: as §2
Clostridium perfringens [9] = experiment: Competitive inhibition of Clostridium perfringens ATCC 10543 sialidase Nan1 c-terminal catalytic domain using 4-methylumbelliferyl-alpha-D-N-acetylneuraminic acid sodium salt hydrate as substrate by Lineweaver-Burk and Dixon plot analysis
[10] = Reversible inhibition of Clostridium perfringens ATCC 10543 sialidase Nan1 c-terminal catalytic domain using 4-methylumbelliferyl-alpha-D-N-acetylneuraminic acid sodium salt hydrate as substrate compound pre-incubated prior to substrate addition by fluorimetric analysis; settings: read-out: Ki(app)
Clostridium perfringens [11] = experiment: Inhibition of Clostridium perfringens ATCC 10543 sialidase Nan1 c-terminal catalytic domain using 4-methylumbelliferyl-alpha-D-N-acetylneuraminic acid sodium salt hydrate as substrate at IC50 concentration pre-incubated for 10 mins prior substrate addition by fluorimetric analysis; settings: TDE = time-dependent effect
[12] = Inhibition of alpha-glucosidase at 200 uM
[13] = target: Neuraminidase (Influenza A virus (strain A/Brevig Mission/1/1918 H1N1) (Influenza Avirus (strain A/South Carolina/1/1918 H1N1))) (UniProt Q9IGQ6); experiment: Inhibition of recombinant influenza A virus H1N1 A/Bervig_Mission/1/18 sialidase activity using 4-methylumbelliferyl-alpha-D-N-acetylneuraminic acid sodium salt hydrate as substrate at 200 uM by fluorimetric analysis; settings: Influenza A virus (A/Brevig Mission/1/1918(H1N1))

| Structure (SMILES) | inhibition [1] | inhibition [2] | IC50 [3] [µM] | inhibition [4] | IC50 [5] [µM] | inhibition [6] | IC50 [7] [µM] | inhibition (Clostridium perfringens [8]) | Kic (Clostridium perfringens [9]) [µM] | Ki [10] [µM] | inhibition (Clostridium perfringens [11]) | inhibition [12] | inhibition [13] |
| --- | --- | --- | --- | --- | --- | --- | --- | --- | --- | --- | --- | --- | --- |
| CC(=O)O[C@H](CC=C(C)C)C1=CC(=O)c2c(O)ccc(O)c2C1=O [ACETYLSHIKONIN] | inactive | Active | 41.4 | Dose-dependent effect | 158 | inactive | 2.5 | Dose-dependent effect | 1.1 | 1.01 | tde |  |  |
| CC(C)=CC[C@@H](OC(=O)CC(C)(C)O)C1=CC(=O)c2c(O)ccc(O)c2C1=O [BETA-HYDROXYISOVALERYLSHIKONIN] | inactive | Active | 40.5 | Dose-dependent effect |  | inactive | 3.4 | Dose-dependent effect | 0.8 | 2.24 | tde | inactive |  |
| CC(C)=CCCC1=CC(=O)c2c(O)ccc(O)c2C1=O [DEOXYSHIKONIN] | inactive | Active | 63.4 | Dose-dependent effect |  | inactive | 27.5 | Dose-dependent effect | 15.9 | 11.9 | tde | inactive |  |
| CC(C)=CC[C@@H](OC(=O)C=C(C)C)C1=CC(=O)c2c(O)ccc(O)c2C1=O [DIMETHYLACRYLSHIKONIN] | inactive | Active | 47.3 | Dose-dependent effect | 141 | inactive | 1.9 | Dose-dependent effect | 0.6 | 1.75 | tde |  |  |
| CC(C)=CC[C@@H](OC(=O)C(C)C)C1=CC(=O)c2c(O)ccc(O)c2C1=O [ISOBUTYLSHIKONIN] | inactive | Active | 40.5 | Dose-dependent effect | 144 | inactive | 2.9 | Dose-dependent effect | 0.9 | 0.26 | tde |  |  |
| CC(C)=CC[C@@H](O)C1=CC(=O)c2c(O)ccc(O)c2C1=O [SHIKONIN] | inactive | Active | 34.1 | Dose-dependent effect |  | inactive | 53.8 | Dose-dependent effect | 21.4 | 58.8 | tde | inactive |  |
| CC(C)=CCC(OC(=O)CC(C)C)c1coc(-c2cc(O)ccc2O)c1 (configuration not stated) [SHIKONOFURAN C] | inactive |  | > 100 |  | 20.8 | inactive | 0.6 | Dose-dependent effect | 0.2 | 0.15 | tde |  | inactive |
| CC(C)=CCC(OC(=O)C(C)C)c1coc(-c2cc(O)ccc2O)c1 (configuration not stated) [SHIKONOFURAN D] | inactive |  | > 100 |  | 37.8 | inactive | 1 | Dose-dependent effect | 0.3 | 0.21 | tde |  | inactive |
| CC(C)=CCC(OC(=O)C=C(C)C)c1coc(-c2cc(O)ccc2O)c1 (configuration not stated) [SHIKONOFURAN E] | inactive |  | > 100 |  | 26.6 | inactive | 0.2 | Dose-dependent effect | 0.1 | 0.05 | tde |  | inactive |
| OCC(CO)N[C@H]1C[C@](O)(CO)[C@@H](O)[C@H](O)[C@H]1O [VOGLIBOSE] |  |  |  |  | 23.4 |  |  |  |  |  |  |  |  |
